Reference: PMC9435431, “Novel chemical entities inhibiting Mycobacterium tuberculosis growth identified by phenotypic high-throughput screening” (Scientific Reports, 2022)
Values after ≈ are worked out from the molar mass of the structure shown. Where two headings read alike, the source gives them in different places.

Key:
M. tuberculosis H37Rv = experiment: microbe, parasite or virus in culture; assay type: cell-based; details: Mycobacterium tuberculosis, 120 h
[1] = test system: wild-type M. tuberculosis; experiment: microbe, parasite or virus in culture; assay type: cell-based, Mycobacterium tuberculosis; details: for MIC / IC90: Mycobacterium tuberculosis
in vitro [2] = assay type: cell-based; details: human; for IC20: concentration for 20% inhibition of HepG2 cells, 72 h, n = 2
Method: HepG2 cells were seeded at 2000 cells per well in 384-well, black, clear bottom PDL coated plates in MEM medium supplemented with 10% FBS, 2 mM L-glutamine, 1 mM sodium pyruvate and incubated overnight at 37C, 5% CO2. Compounds were added and plates incubated for 72 h. Cell viability was measured using the CyQUANT® reagent and imaging on a ViewLux™ ultraHTS Microplate Imager. The IC20 and IC50 were calculated from dose response curves.

M. tuberculosis = experiment: microbe, parasite or virus in culture; assay type: cell-based; details: Mycobacterium tuberculosis, read-out: MIC on solid medium
in vitro [3] = assay type: in vitro ADME, human; details: for CLint scaled at 0.5 µM: human, microsomes, pH 7.4, human Clint; for microsomal clearance / stability (in words): human microsomes
Method: Compounds (0.5 µM) were incubated with 0.25 mg/mL liver microsomal proteins at pH 7.4 at 37 °C. Reactions were initiated with […] and samples taken at 0, 5, 10, 15, 20 and 30 min. The reaction was stopped by addition of 95% ACN/5% MeOH containing an internal standard. Samples were combined in compound groups of six pre-sorted by mono molecular weight and analyzed by LC/MS/MS. The peak area ratios (analyte peak area/IS peak area) were converted to % remaining using the area ratio at time 0 as 100%. The. half-life (T ½) and intrinsic clearance (mCLint) were calculated.

[4] = Table 5, read-out: Wild-type MIC

Row | Compound | inhibition at 20 µM (M. tuberculosis H37Rv; read-out: % Inhibition Run 1) | inhibition at 20 µM (M. tuberculosis H37Rv; read-out: % Inhibition Run 2) | MIC ([1]; read-out: MTB MIC) | IC20 at 72 h (in vitro [2]) | MIC ([1]; 120 h, read-out: MIC) | CLint scaled at 0.5 µM (in vitro [3]) | other results
1 | c1ccc(-c2cncc(N3CC4CC5CC3CN(C5)C4)c2)cc1 (stereo not drawn) [AAP] | 99% | 97% | – | – | – | – | MIC ([1]; 120 h, read-out: MTB MIC): 23 µM (≈ 7.02 µg/mL); IC20 (in vitro [2]): 27 µM
2 | CC(=O)n1cc(Nc2ccccc2O)c2ccccc21 [ACI-2] | 100% | 100% | 4.5 µM (≈ 1.2 µg/mL) | 30 µM | – | – | –
3 | O=C(c1c(Cl)cccc1Cl)N1COCN(c2ccc(C(F)(F)F)cc2)C1=O [ACU-1] | 98% | 98% | 7.6 µM (≈ 3.19 µg/mL) | 65 µM | – | – | –
4 | c1ccc(N2CCN(Cc3cnc4ccccc4n3)CC2)cc1 [AMQ-5] | 98% | 99% | 7.8 µM (≈ 2.37 µg/mL) | 2 µM | – | – | –
5 | Clc1ccc(-c2nc(Cn3ccnc3)cs2)cc1 [AMT-1] | 98% | 96% | 35 µM (≈ 9.65 µg/mL) | 34 µM | – | – | –
6 | CNc1cc(-c2ccccn2)nc(-c2ccccn2)n1 [APDP-1] | 99% | 100% | 10 µM (≈ 2.63 µg/mL) | 0.028 µM | – | – | IC90 [1]: 10 µM
7 | O=S(=O)(Nc1ccccc1-c1nn[nH]n1)c1ccc(OC(F)(F)F)cc1 [APT] | 99% | 99% | 6.9 µM (≈ 2.66 µg/mL) | 0.47 µM | – | – | –
8 | N#C/C(=C\NC1CCCCC1)c1nc2ccccc2[nH]1 [BCI-2] | 100% | 100% | 9.6 µM (≈ 2.56 µg/mL) | 0.85 µM | – | – | –
9 | CCC(=O)Nc1nc(-c2nc3ccccc3oc2=O)cs1 [BOZ] | 99% | 100% | 4.8 µM (≈ 1.45 µg/mL) | 37 µM | – | – | –
10 | Cc1cnc(-n2nnc3ccccc3c2=O)s1 [BTT] | 100% | 100% | 4.8 µM (≈ 1.17 µg/mL) | 37 µM | – | – | –
11 | Nc1ccnc(Nc2ccccc2Nc2ccccc2)n1 [DAP] | 99% | 99% | 0.7 µM (≈ 0.194 µg/mL) | 0.83 µM | – | – | –
12 | NCC(c1ccco1)S(=O)(=O)c1ccccc1 (stereo not drawn) [FAS] | 100% | 100% | 9.5 µM (≈ 2.39 µg/mL) | 2 µM | – | – | –
13 | O=C(Nc1nc2ccccc2s1)NC1C2CC3CC(C2)CC1C3 (stereo not drawn) [HBU-1] | 100% | 100% | – | 8.2 µM | – | – | IC90 [1]: 4.2 µM; MIC ([1]; 120 h, read-out: MTB MIC): 4.2 µM (≈ 1.38 µg/mL)
14 | CNC(=O)N(O)C1c2cccc(F)c2Oc2ccsc21 (stereo not drawn) [HDU-2] | 99% | 100% | 19 µM (≈ 5.59 µg/mL) | 42 µM | – | – | –
15 | CCC1(N2CCC(c3ccccc3)CC2)CCCCC1 [Molecule 4PP-1, 1-(1-Ethyl-cyclohexyl)-4-phenyl-piperidine] | 100% | 99% | 6.3 µM (≈ 1.71 µg/mL) | – | 6.3 ± 2.7 µM (≈ 1.71 µg/mL) | – | IC90 [1]: 6.3 µM; MIC [1, 4]: 6.3 µM (≈ 1.71 µg/mL); MIC ([1]; read-out: MIC): 6.3 µM (≈ 1.71 µg/mL); IC20 (in vitro [2]): > 80 µM
16 | O=C(O)C(F)(F)F.c1cc(C2CCN(CC3CCCCC3)CC2)ccn1 [Molecule 4PP-32, 4-[1-(Cyclohexylmethyl)-4-piperidyl]pyridine, 2,2,2-trifluoroacetic acid salt] | – | – | – | – | > 20 µM | – | anti-tubercular activity (in words) [1]: inactive; MIC (M. tuberculosis): 1.6 µM
17 | COc1ccc(CCNC(=O)C2(c3ccccc3)CCC2)cc1Br [PCB-1, N-(3-bromo-4-methoxyphenethyl)-1-phenylcyclobutane-1-carboxamide] | 100% | 100% | 6.9 µM (≈ 2.68 µg/mL) | 33 µM | 6.9 ± 1.7 µM (≈ 2.68 µg/mL) | 1330 mL/min/kg | MIC ([1]; read-out: MIC): 6.9 µM (≈ 2.68 µg/mL)
18 | O=C(NCCc1cccc(Br)c1)C1(c2ccc(F)cc2)CCC1 [PCB-19, N-(3-bromophenethyl)-1-(4-fluorophenyl)cyclobutane-1-carboxamide] | – | – | – | – | 2.3 ± 0.7 µM (≈ 0.865 µg/mL) | 3920 mL/min/kg | MIC [1, 4]: 2.3 µM (≈ 0.865 µg/mL); microsomal clearance / stability (in words) (in vitro [3]): very poor microsomal stability; MIC (M. tuberculosis): 0.63 µM (≈ 0.237 µg/mL)
19 | O=C(NCCc1cccc(Br)c1)C1(c2ccccc2F)CCC1 [PCB-20, N-(3-bromophenethyl)-1-(2-fluorophenyl)cyclobutane-1-carboxamide] | – | – | – | – | 5.5 ± 2.1 µM (≈ 2.07 µg/mL) | 4380 mL/min/kg | microsomal clearance / stability (in words) (in vitro [3]): very poor microsomal stability

Row | Compound | inhibition at 20 µM (M. tuberculosis H37Rv; read-out: % Inhibition Run 1) | inhibition at 20 µM (M. tuberculosis H37Rv; read-out: % Inhibition Run 2) | MIC ([1]; read-out: MTB MIC) | IC20 at 72 h (in vitro [2]) | MIC ([1]; 120 h, read-out: MIC) | CLint scaled at 0.5 µM (in vitro [3]) | other results
20 | O=C(NCCc1cccc(Br)c1)C1(c2ccccc2Br)CCC1 [PCB-21, N-(3-bromophenethyl)-1-(2-bromophenyl)cyclobutane-1-carboxamide] | – | – | – | – | 2 ± 0.5 µM (≈ 0.874 µg/mL) | 13600 mL/min/kg | MIC [1, 4]: 2 µM (≈ 0.874 µg/mL); MIC (M. tuberculosis): 1.25 µM (≈ 0.546 µg/mL)
21 | O=C(NCCc1cccc(Br)c1)C1(c2ccccc2C(F)(F)F)CCC1 [PCB-22, N-(3-bromophenethyl)-1-(2-(trifluoromethyl)phenyl)cyclobutane-1-carboxamide] | – | – | – | – | 5.7 ± 2.8 µM (≈ 2.43 µg/mL) | 16300 mL/min/kg | –
22 | Cc1ccccc1C1(C(=O)NCCc2cccc(Br)c2)CCC1 [PCB-23, N-(3-bromophenethyl)-1-(o-tolyl)cyclobutane-1-carboxamide] | – | – | – | – | 1.3 ± 0.5 µM (≈ 0.484 µg/mL) | 6520 mL/min/kg | MIC [1, 4]: 1.3 µM (≈ 0.484 µg/mL); MIC ([1]; read-out: MIC): 1.3 µM (≈ 0.484 µg/mL)
23 | O=C(NCCc1cccc(Br)c1)C1(c2ccccc2)CC(F)(F)C1 [PCB-24, N-(3-bromophenethyl)-3,3-difluoro-1-phenylcyclobutane-1-carboxamide] | – | – | – | – | 15 ± 3.7 µM (≈ 5.91 µg/mL) | 4380 mL/min/kg | MIC ([1]; read-out: MIC): 15 µM (≈ 5.91 µg/mL); microsomal clearance / stability (in words) (in vitro [3]): poor microsomal stability
24 | O=C(NCCc1cccc(Br)c1)C1(c2ccccc2)COC1 [PCB-25, N-(3-bromophenethyl)-3-phenyloxetane-3-carboxamide] | – | – | – | – | 12 ± 2.8 µM (≈ 4.32 µg/mL) | 333 mL/min/kg | MIC ([1]; read-out: MIC): 12 µM (≈ 4.32 µg/mL); microsomal clearance / stability (in words) (in vitro [3]): some improvement in clearance
25 | COc1ccc(CCNC(=O)C2(c3ccc(F)cc3)CCC2)cc1Br [PCB-26, N-(3-bromo-4-methoxyphenethyl)-1-(4-fluorophenyl)cyclobutane-1-carboxamide] | – | – | – | – | 2.8 ± 0.1 µM (≈ 1.14 µg/mL) | 2480 mL/min/kg | MIC ([1]; read-out: MIC): 2.8 µM (≈ 1.14 µg/mL); microsomal clearance / stability (in words) (in vitro [3]): at the expense of clearance
26 | COc1ccc(CCNC(=O)C2(c3ccccc3Cl)CCC2)cc1-c1ccccc1 [PCB-27, 1-(2-chlorophenyl)-N-(2-(6-methoxy-[1,1'-biphenyl]-3-yl)ethyl)cyclobutane-1-carboxamide] | – | – | – | – | 3.6 ± 1.3 µM (≈ 1.51 µg/mL) | 28000 mL/min/kg | microsomal clearance / stability (in words) (in vitro [3]): much higher clearance
27 | O=C(NCCc1cccc(C(F)(F)F)c1)C1(c2ccccc2)COC1 [PCB-28, 3-phenyl-N-(3-(trifluoromethyl)phenethyl)oxetane-3-carboxamide] | – | – | – | – | 9.1 ± 0.8 µM (≈ 3.18 µg/mL) | 232 mL/min/kg | anti-tubercular activity (in words) [1]: loss in activity; microsomal clearance / stability (in words) (in vitro [3]): improved clearance
28 | Cc1ccccc1C1(C(=O)NCCc2cccc(C(F)(F)F)c2)CCC1 [PCB-29, 1-(o-tolyl)-N-(3-(trifluoromethyl)phenethyl)cyclobutane-1-carboxamide] | – | – | – | – | 0.45 ± 0.01 µM (≈ 0.163 µg/mL) | 14700 mL/min/kg | MIC ([1]; read-out: MIC): 0.45 µM (≈ 0.163 µg/mL); microsomal clearance / stability (in words) (in vitro [3]): increase in clearance
29 | O=C(NCCc1cccc(C(F)(F)F)c1)C1(c2ccc(F)cc2)CCC1 [PCB-30, 1-(4-fluorophenyl)-N-(3-(trifluoromethyl)phenethyl)cyclobutane-1-carboxamide] | – | – | – | – | 0.99 ± 0.3 µM (≈ 0.362 µg/mL) | 2020 mL/min/kg | anti-tubercular activity (in words) [1]: slight reduction in activity; microsomal clearance / stability (in words) (in vitro [3]): significantly improved clearance
30 | C=CCc1c(C)nc(-c2ccccn2)nc1O [PDPO-1] | 99% | 96% | 23 µM (≈ 5.23 µg/mL) | 2.8 µM | – | – | –
31 | Cc1nc2ccccn2c1-c1ccn(Cc2ccccc2)n1 [PPP-1] | 100% | 98% | 38 µM (≈ 11 µg/mL) | 4.3 µM | – | – | –
32 | CC(C)c1ccc(-n2nnn(C(=O)N(C)C3CCOCC3)c2=O)cc1Cl [PTZ-3] | 96% | 6% | 5.2 µM (≈ 1.98 µg/mL) | – | – | – | IC20 (in vitro [2]): 26 µM
33 | Cc1ccc(-c2nnc(C)c(N3CCCC3)n2)cc1 [PYT] | 100% | 98% | 11 µM (≈ 2.8 µg/mL) | 23 µM | – | – | IC90 [1]: 11 µM
34 | CN(Cc1cn2c3ccccc3n(C)c2n1)C12CC3CC(CC(C3)C1)C2 [PZI] | 98% | 98% | 9.3 µM (≈ 3.24 µg/mL) | 15 µM | – | – | –
35 | Cc1cc(NC2CCCCC2)nc(-n2nc(C)cc2C)n1 [PZP-3] | 98% | 98% | 4.5 µM (≈ 1.28 µg/mL) | 47 µM | – | – | IC90 [1]: 4.5 µM
36 | CC(=O)n1nccc1-c1sc(-c2cccs2)nc1C [TPT] | 99% | 99% | 7.1 µM (≈ 2.05 µg/mL) | > 80 µM | – | – | IC90 [1]: 7.1 µM
37 | CCOC(=O)c1oc2c(c1C)-c1nc(C)sc1CC2 [TZF] | 99% | 99% | 18 µM (≈ 4.99 µg/mL) | > 80 µM | – | – | –
